PubChem BioAssay AID1996
≈ marks a conversion by molar mass, not a printed value.

Conditions: buffer; pH 7.4; 200.0 µM

Row | SMILES | solubility kinetic [µg/mL]
1 | CCNC(=O)c1ccc(N(C)S(=O)(=O)c2cccs2)cc1 | > 48.7
2 | CCN1CCN(CC(=O)c2ccc(C)cc2)CC1 | 32.4 (≈ 132 µM)
3 | COC(=O)c1cc(S(=O)(=O)N2CCC(C(N)=O)CC2)oc1C | > 49.6
4 | O=C(NC(=O)N1CCCCC1)c1ccccc1 | 31.7 (≈ 136 µM)
5 | COC(=O)c1ccc(CN=C(NS(=O)(=O)c2ccccc2)c2ccccc2)cc1 | > 61.3
6 | Cc1ccc(S(=O)(=O)c2c(C)cc(C)nc2N2CCCC2)cc1 | 1.2 (≈ 3.63 µM)
7 | CC1CCN(C(=O)CN2C(=O)COc3ccc(Cl)cc32)CC1 | > 48.4
8 | CCOc1ccc(CNC2CCCCCCC2)cc1OC.Cl | 37.1
9 | Cc1ccccc1CN(C)C(=O)c1ccc2ccccc2n1 | > 43.6
10 | O=C(Cn1c(=O)oc2ccccc21)Nc1ccc(Cl)cc1 | 1.8 (≈ 5.95 µM)
11 | CC(=O)N1CCN(Cc2nc3cc(Cl)ccc3c(=O)[nH]2)CC1 | > 48.1
12 | S=C(NCC1CCCO1)Nc1cccc(Cl)c1 (stereo unspecified) | > 40.6
13 | CN1CCN(CC#CCC(O)(c2ccccc2)c2ccccc2)CC1.Cl | > 55.6
14 | Cc1cccc(-c2cc(C(=O)Nc3ccncc3)c3ccccc3n2)c1 | 0.8 (≈ 2.36 µM)
15 | COc1ccc(CNC(=O)c2nccnc2CO)cc1 | > 41
16 | O=C(O)c1ccccc1NC(=O)N1CCOCC1 | > 37.5
17 | Fc1ccccc1CNCCc1ccc2c(c1)OCO2 | 40.5 (≈ 148 µM)
18 | CCN(c1ccccc1)S(=O)(=O)c1ccc(Cl)c(NC(=O)CNCc2ccccc2OC)c1 | 3.7 (≈ 7.58 µM)
19 | O=C(c1cn(Cc2ccccc2F)c2ncccc12)C(F)(F)F | 2.8 (≈ 8.69 µM)
20 | O=C(NC1CC1)c1cc2ccccc2o1 | > 30.2
21 | Cc1ccc(NC(=O)CNc2cc(S(=O)(=O)N3CCOCC3)ccc2N2CCOCC2)cc1S(=O)(=O)N(C)C | 5.3 (≈ 9.11 µM)
22 | CC(C)CC1CCCCC1OC(=O)CN1CCCCC1 (stereo unspecified) | 3.7 (≈ 13.1 µM)

Row | SMILES | solubility kinetic [µg/mL]
23 | O=C(CSc1ccccc1)NCCc1ccc(F)cc1 | 34.9 (≈ 121 µM)
24 | Cc1cccc(C(=O)OCC(=O)c2csc(N3CCCCC3)n2)c1[N+](=O)[O-] | 2.8 (≈ 7.19 µM)
25 | O=C1CC(N2CCN(c3ccc(F)cc3)CC2)C(=O)N1Cc1ccccc1 (stereo unspecified) | 48.2 (≈ 131 µM)
26 | CSc1cccc(NC(=O)CC2Oc3ccccc3NC2=O)c1 (stereo unspecified) | 1.8 (≈ 5.48 µM)
27 | O=C1NCCN/C1=C\C(=O)c1ccc(F)cc1 | 32.5 (≈ 139 µM)
28 | COc1ccc(C(=O)CC(=O)Nc2ccc([N+](=O)[O-])cc2)cc1 | 2.6 (≈ 8.27 µM)
29 | CN1C(=O)S/C(=C/c2ccc(OCc3cccc(C(=O)O)c3)cc2)C1=O | 10.6 (≈ 28.7 µM)
30 | CN(C)c1c(F)cc(C(=O)NC(=O)NCc2cccnc2)cc1F | 4 (≈ 12 µM)
31 | CCOP(=O)(c1ccc(N(C)C)cc1)C(O)c1ccc(OC)cc1 (stereo unspecified) | 48.8 (≈ 140 µM)
32 | O=C1CN(C(=O)COc2ccc(F)cc2Cl)c2ccccc2N1 | > 50.2
33 | Cc1ccc(NS(=O)(=O)c2ccc(C(=O)NC3CCN(Cc4ccccc4)CC3)cc2)cc1.Cl | 6.4
34 | O=c1c2oc3nc4c(cc3c2ncn1CCCc1ccccc1)CCCC4 | 1.3 (≈ 3.62 µM)
35 | Cc1cc(S(=O)(=O)Nc2noc3ccccc23)ccc1F | 41.2 (≈ 135 µM)
36 | CCN(CC)c1ccc(/C=C2\SC(N)=NC2=O)cc1 | < 0.2
37 | COc1ccc(C(=O)NC(=O)COC(=O)C2CC2C)cc1 (stereo unspecified) | 13.7 (≈ 47 µM)
38 | O=C(Nc1cccnc1)c1cc(Cl)ccc1Cl | > 40.1
39 | COc1ccc(C(=O)N2CCC2)cc1S(=O)(=O)NCc1ccc(Cl)cc1 | 57.4 (≈ 145 µM)
40 | CCSc1nc2ccccc2c(=O)n1Cc1ccc(F)cc1 | < 0.3
41 | Cc1cc(C(=O)CN2C(=O)NC(CCS(C)(=O)=O)C2=O)c(C)n1C1CC1 (stereo unspecified) | 48.3 (≈ 127 µM)
42 | O=c1c2cc(Br)ccc2nc(-c2ccccc2)n1O | 39.4 (≈ 124 µM)
43 | CCN(CC(=O)Nc1ccc2c(c1)OCCO2)CC(=O)Nc1ccc(C)c(S(=O)(=O)N(C)C)c1 | 35.3 (≈ 72 µM)
44 | Cc1cc2ccccn2c1C(=O)c1ccc([N+](=O)[O-])o1 | 1.3 (≈ 4.81 µM)

Row | SMILES | solubility kinetic [µg/mL]
45 | Cc1ccccc1C(=O)O/N=C(\N)c1ccccc1 | 34.3 (≈ 135 µM)
46 | Cc1cnc(=O)[nH]c1SCc1ccc(C(F)(F)F)cc1 | 5.1 (≈ 17 µM)
47 | COc1ccccc1NC(=O)COc1ccccc1C(=O)Nc1ccccc1 | 5.9 (≈ 15.7 µM)
48 | COc1ccccc1OCc1ccc(C(=O)N2CCCCC2)o1 | > 47.3
49 | CCOC(=O)C1=C(C)Nc2ccccc2N=C1N | > 36.8
50 | CC(=O)c1cccc(NC(=O)CCNC(=O)c2cccc(C)c2)c1 | 20.5 (≈ 63.2 µM)
51 | COc1ccccc1C(=O)NCCCNC(=O)c1cnccn1 | 36.6 (≈ 116 µM)
52 | COc1ccc(C2(O)C(=O)Nc3ccc(C)cc32)cc1 (stereo unspecified) | > 40.4
53 | Cc1cccc(NC(=O)Cn2nc(-c3ccco3)ccc2=O)c1C | > 48.5
54 | CC(CCc1ccccc1)NCCC#N.Cl (stereo unspecified) | > 35.8
55 | O=C1Nc2ccccc2Nc2ccccc21 | 20.9 (≈ 99.4 µM)
56 | CSc1cccc(NC(=O)CNC(=O)C2CCCCC2)c1 | 22.7 (≈ 74.1 µM)
57 | CN(CC(=O)Nc1cccc(F)c1)C(=O)COc1ccc2c(c1)CCC2 | 1.9 (≈ 5.33 µM)
58 | CCN(CC)CCCN=C(C)C1=C(O)c2ccccc2C1=O | > 45.1
59 | COc1ccc(NC(=O)CCCCC(=O)Nc2ccc(OC)cc2OC)c(OC)c1 | 12.4 (≈ 29.8 µM)
60 | O=S(=O)(c1ccc2ccccc2c1)N1CCc2ccccc21 | < 0.7
61 | CN(CC(=O)Nc1ccccc1Cl)C(=O)CCNC(=O)Nc1ccccc1 | > 58.3
62 | O=C(CSc1nccc(=O)[nH]1)Nc1ccc2ccccc2c1 | > 46.7
63 | COc1ccc(NC(=O)CCCC(=O)O)cc1Cl | > 40.8
64 | O=C(Nc1ccc(Br)cn1)c1ccc(Cl)s1 | 1.4 (≈ 4.41 µM)
65 | CCn1c(SCc2ccccc2)nc2ccccc2c1=O | 1.3 (≈ 4.39 µM)
66 | CC12CCC(=O)N1C(C(=O)Nc1ccc(F)cc1)CS2 (stereo unspecified) | > 44.2

Row | SMILES | solubility kinetic [µg/mL]
67 | CCc1cccc(C)c1NC(=O)N(C)C1CCCCC1 | 35.6 (≈ 130 µM)
68 | Cc1cc(N(C)Cc2ccccc2)nc2cc(O)ccc12 | 30.5 (≈ 110 µM)
69 | COc1ccc(C(C)(C)C)cc1NC(=O)c1ccc[n+]([O-])c1 | > 45.1
70 | Cl.Nc1ncnc2nc[nH]c12 | > 25.7
71 | CCCCc1ccc(NC(=O)Nc2cnccn2)cc1 | 1.1 (≈ 4.07 µM)
72 | COc1ccccc1CNC(=O)COC(=O)c1cc(C)oc1C | 4.3 (≈ 13.6 µM)
73 | CCc1cccc(C)c1NC(=O)C1CC(=O)N(C2CCCC2)C1 (stereo unspecified) | > 47.2
74 | O=C(CN1CCN(Cc2ccccc2Cl)CC1)N/N=C/c1ccccn1 | > 55.8
75 | COc1ccccc1C1CCN(Cc2ccccc2)CC1 | 31.1 (≈ 111 µM)
76 | Cc1ccc(-c2noc(=O)n2CC(=O)c2ccc(Cl)cc2)cc1 | < 0.4
77 | CC(=O)Nc1ccc(C(=O)OCc2ccc(F)cc2Cl)cc1 | 1.7 (≈ 5.28 µM)
78 | CCOc1cc(Cl)c(CNCCCN2CCOCC2)cc1OC | > 51.4
79 | Cc1ccc(C)c(OCc2cc(C(=O)N3CCOCC3)no2)c1 | 42.1 (≈ 133 µM)
80 | COc1ccc(Cl)cc1NC(=O)CN(C)C(=O)C1COc2ccccc2O1 (stereo unspecified) | 43.1 (≈ 110 µM)
81 | CCCNC(=O)Cn1c(=O)n(C)c2ccccc21 | > 37.1
82 | CO/N=C/C=C1/N(C)c2ccccc2C1(C)C | 19.4 (≈ 84.2 µM)
83 | CCCOc1ccc(Oc2nc(-c3ccncc3)nc3ccccc23)cc1 | < 0.3
84 | O=C(Nc1cccc(F)c1)Nc1ccc2c(c1)OCO2 | 4.4 (≈ 16 µM)
85 | Cc1cccc(C(=O)NC(C)c2ccc(-n3ccnc3)cc2)c1C (stereo unspecified) | 43 (≈ 135 µM)
86 | Cc1cc(Nc2ccccc2)n(-c2ccc(C(=O)O)cc2)n1 | > 44
